Assay results published in BindingDB's records for doi:10.1021/acschembio.7b00653 (University of Konstanz, 2017).

Biological target: T1, AP-4-A phosphorylase (Mycobacterium tuberculosis (strain ATCC 25618 / H37Rv), UniProt P9WMK9)
T1 sequence (P9WMK9 whole entry): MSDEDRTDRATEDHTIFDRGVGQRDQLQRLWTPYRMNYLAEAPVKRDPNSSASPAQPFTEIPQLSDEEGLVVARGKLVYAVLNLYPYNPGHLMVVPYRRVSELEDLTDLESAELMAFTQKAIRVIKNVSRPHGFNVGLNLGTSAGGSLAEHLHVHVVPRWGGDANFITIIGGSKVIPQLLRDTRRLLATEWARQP
Experiment: FRET assay
Conditions: pH 8
Method: Dose response curves against Rv2613c with 1 as the substrate for derivatives 5 and 18. 8 nM of Rv2613c were preincubated in buffer (20 mM Tris-HCl (pH 8.0), 50 mM NaCl, 1 mM DTT, 0.2 mg/mL BSA, 5 mM NaH2PO4, 5 mM MgCl2) with indicated amounts of compound solved in DMSO at 25°C for 30 min. Substrate 1 (2 µM in Tris-HCl buffer pH 8.0) was added Measurement of the fluorescence at 570 nm was conducted every 3 min over 1 h. Turnover of probe 1 was calculated by normalization to the intensity of controls. The rate of probe 1 turnover was obtained by linear fitting of probe 1 turnover over time. % Inhibition was calculated relative to the controls. The IC50 was calculated by a non-linear curve fit/dose response curve in Origin.

Question: Which IC50 does the source give for `CS/C(Nc1cccc(C(F)(F)F)c1)=C(/C#N)S(=O)(=O)c1ccc(Cl)cc1` [Synthesized Sulfanylacrylonitril Derivatives 2] here?
Answer: 0.26 µM

Question: How did the IC50 turn out when `CS/C(Nc1ccccc1)=C(/C#N)S(=O)(=O)c1ccccc1` [Synthesized Sulfanylacrylonitril Derivatives 3] was run?
Answer: > 30 µM

Question: With `CS/C(Nc1ccccc1)=C(/C#N)S(=O)(=O)c1ccc(Cl)cc1` [Synthesized Sulfanylacrylonitril Derivatives 4] as the compound, how does the IC50 read?
Answer: > 100 µM

Question: `CS/C(Nc1cccc(C(F)(F)F)c1)=C(/C#N)S(=O)(=O)c1ccccc1` [Synthesized Sulfanylacrylonitril Derivatives 5] was tested. Which IC50 did it give?
Answer: 0.12 µM

Question: How did the IC50 turn out when `CS/C(Nc1ccccc1C(F)(F)F)=C(/C#N)S(=O)(=O)c1ccccc1` [Synthesized Sulfanylacrylonitril Derivatives 6] was run?
Answer: > 100 µM

Question: `CS/C(Nc1ccc(C(F)(F)F)cc1)=C(/C#N)S(=O)(=O)c1ccccc1` [Synthesized Sulfanylacrylonitril Derivatives 7] was tested. Which IC50 did it give?
Answer: 16.3 µM

Question: Which IC50 does the source give for `CS/C(Nc1cc(C(F)(F)F)cc(C(F)(F)F)c1)=C(/C#N)S(=O)(=O)c1ccccc1` [Synthesized Sulfanylacrylonitril Derivatives 8] here?
Answer: > 100 µM

Question: Which IC50 does the source give for `CCCS/C(Nc1cccc(C(F)(F)F)c1)=C(/C#N)S(=O)(=O)c1ccccc1` [Synthesized Sulfanylacrylonitril Derivatives 10] here?
Answer: 0.47 µM

Question: Which IC50 does the source give for `CC(C)S/C(Nc1cccc(C(F)(F)F)c1)=C(/C#N)S(=O)(=O)c1ccccc1` [Synthesized Sulfanylacrylonitril Derivatives 11] here?
Answer: 0.94 µM

Question: How did the IC50 turn out when `N#C/C(=C(\Nc1cccc(C(F)(F)F)c1)SCc1ccccc1)S(=O)(=O)c1ccccc1` [Synthesized Sulfanylacrylonitril Derivatives 12] was run?
Answer: 0.8 µM

Question: `CS/C(Nc1cccc(C)c1)=C(/C#N)S(=O)(=O)c1ccccc1` [Synthesized Sulfanylacrylonitril Derivatives 14] was tested. Which IC50 did it give?
Answer: 4.62 µM

Question: How did the IC50 turn out when `CS/C(Nc1cccc([N+](=O)[O-])c1)=C(/C#N)S(=O)(=O)c1ccccc1` [Synthesized Sulfanylacrylonitril Derivatives 15] was run?
Answer: 1.3 µM

Question: `CS/C(Nc1cccc(C#N)c1)=C(/C#N)S(=O)(=O)c1ccccc1` [Synthesized Sulfanylacrylonitril Derivatives 16] was tested. Which IC50 did it give?
Answer: 2.51 µM

Question: With `COC(=O)c1cccc(N/C(SC)=C(\C#N)S(=O)(=O)c2ccccc2)c1` [Synthesized Sulfanylacrylonitril Derivatives 17] as the compound, how does the IC50 read?
Answer: 21.8 µM

Question: `CCc1cccc(N/C(SC)=C(\C#N)S(=O)(=O)c2ccccc2)c1` [Synthesized Sulfanylacrylonitril Derivatives 18] was tested. Which IC50 did it give?
Answer: 0.57 µM

Question: With `CCCc1cccc(N/C(SC)=C(\C#N)S(=O)(=O)c2ccccc2)c1` [Synthesized Sulfanylacrylonitril Derivatives 19] as the compound, how does the IC50 read?
Answer: 0.96 µM

Question: For `CS/C(Nc1cccc(C(C)C)c1)=C(/C#N)S(=O)(=O)c1ccccc1` [Synthesized Sulfanylacrylonitril Derivatives 20], which IC50 is on record?
Answer: 1.77 µM

Question: With `COc1cccc(N/C(SC)=C(\C#N)S(=O)(=O)c2ccccc2)c1` [Synthesized Sulfanylacrylonitril Derivatives 21] as the compound, how does the IC50 read?
Answer: 11.3 µM

Question: `CS/C(Nc1cc(C)cc(C)c1)=C(/C#N)S(=O)(=O)c1ccccc1` [Synthesized Sulfanylacrylonitril Derivatives 22] was tested. Which IC50 did it give?
Answer: > 100 µM
